# Results published in patent US11926580B2, “Hydropersulfide precursors” (THE JOHNS HOPKINS UNIVERSITY, priority 2018, dated 2024).
# Values joined by “and” are separate entries in the source; they are usually repeats but may differ in a detail not shown here. Equal entries are not always repeated.
# Assays:
# [1] = UPLC-MS analysis of RSSH trapping with N-ethylmaleimide; format: physicochemical; conditions: for RSSH generation (RSS-NEM adduct formation): NEM trap
# Experimental: FIGS. 2a and 2b provide graphs of (a) UPLC-MS chromatograms of RSSH generation from 4d (200 μM) in the presence of NEM (4 mM) incubated in pH 7.4 ammonium bicarbonate (100 mM) with DTPA (100 μM) at 37° C. A peak at 3.7 min corresponding to N-ethylmaleamic acid (NEMA), derived from NEM hydrolysis, was observed under these conditions (see SI); (b) MS spectrum (ESI+ mode) of the product eluting at 5.06 min corresponding to 5a with m/z 349.0885 (expected m/z 349.0886).
# FIG. 5 provides a graph of UPLC-MS chromatograms of RSSH generation from compound 1 (1 mM) in the presence of NEM (5 mM) incubated in pH 7.4 ammonium bicarbonate buffer containing DTPA (100 μM) for 30 min at 37° C. The asterisk indicates the methyl ester analogue of dialkyl trisulfide 2, which was also formed due to the presence of minor amount of methyl ester analogue of 1. A peak at 3.7 min corresponding to N-ethylmaleamic acid (NEMA), derived from NEM hydrolysis, was observed under these conditions.
# RSSH trapping in the presence of N-ethylmaleimide (NEM) was carried out with a Waters Acquity/Xevo-G2 UPLC-MS system equipped with an ACQUITY UPLC BEH C18 column (2.1 mm×50 mm, 1.7 μm). Typically, RSSH precursor (1 eq) was incubated with NEM (5 to 20 eq) in freshly prepared pH 7 4 ammonium bicarbonate buffer (100 mM) containing DTPA (100 μM) at 37° C. An aliquot of the reaction mixture (300 μL) was withdrawn at specified time points, quenched with 0.25% formic acid (300 μL), and filtered through a 0.22 μm filter. The samples were then loaded into vials in an autosampler maintained at 4° C. and analyzed using UPLC-MS as follows: Mobile phase: 0-1 min 90% water+0% ACN+10% formic acid (0.1%); 1-7.5 min gradient up to 10% water+80% ACN+10% formic acid (0.1%); 7.5-8.4 min 10% water+80% ACN+10% formic acid (0.1%); 8.4-8.5 min gradient up to 90% water+0% ACN+10% formic acid (0.1%), 8.5-10 min 90% water+0% ACN+10% formic acid (0.1%). Flow rate=0.3 mL min^−1. The mass signals for products of RSSH trapping with NEM were obtained via deconvolution using MassLynx 4.1 software.
# To a solution of NEM (5 mM) in pH 7 4 ammonium bicarbonate (100 mM) with DTPA (100 μM) in a 20-mL scintillation vial, hydropersulfide precursor 1 (1 mM, total reaction volume 3 mL) was added. The resulting mixture was incubated at 37° C. for 30 min. An aliquot of 300 μL reaction mixture was withdrawn, quenched with 300 μL of formic acid (0.25%) and analyzed using UPLC-MS.
# [2] = Kinetics of RSSH generation by 1H NMR with NEM trapping; format: physicochemical; conditions: 10% D2O, 37° C.; for half-life at 1 mM: phosphate buffer, NEM, pH 7.4 buffer, read-out: half-life of precursor; for t1//2 (mm) / Hydropersulfide Yield (%) (RSS-NEM adduct): precursor 1 mM, NEM 20 mM, pH 7.4 phosphate buffer; for Hydropersulfide Yield (%) (RSS-NEM adduct): based upon % precursor consumed
# Experimental: FIGS. 3a and 3b provide graphs of (a) Stacked ^1H NMR spectra showing the decomposition of precursor 4d (1 mM) with NEM (20 mM) in 10% D2O, phosphate buffer (PB), pH 7.4 at 37° C. to produce RSS-NEM adduct 5a; Precursor 4d was introduced to a solution of NEM in PB at t=0 min and following equilibration and shimming, the first 1H NMR spectrum was obtained after 6 min.; and (b) The kinetics of decomposition of 4d (circles represent the —CH3 protons (Ha) of the precursor) and formation of 5a (squares represent the diasterotopic protons (Hb) of the succinimide ring of the two product diastereomers).
# Next, ^1H NMR spectroscopy was used to monitor the kinetics of RSSH generation from 4d by trapping with NEM in 10% D2O, pH 7.4 buffer containing DMSO as an internal standard at 37° C. An increase in the peak intensity attributed to one of the diasterotopic protons of the succinimide ring of the two product diastereomers (Hb, δ2.99-2.91 ppm) was observed (FIG. 3a). The other diasterotopic proton (Hc, δ3.30-3.21 ppm) overlaps with N-ethylmaleamic acid (NEMA), a product derived from NEM hydrolysis. Similarly, the intensity of two methyl group protons of precursor 4d (δ1.44 and 1.41 ppm) decreased as four methyl group protons of the two diastereomers of 5a (Ha, δ1.40, 1.37 ppm and 1.40, 1.34 ppm) increased, supporting the clean conversion of 4d to 5a. The ^1H NMR peak assignments for 5a are consistent with the RSS-NEM adduct formed during S-methoxycarbonyl penicillamine disulfide (MCPD) decomposition (Scheme 1, eq. 3) in the presence of NEM.
# All starting materials were of reagent grade and used without further purification. N-acetyl-D-penicillamine, N-ethylmaleimide, N-ethylmaleamic acid, and phenylcyanamide were purchased from Sigma-Aldrich and used without further purification. Thiourea and N-substituted thioureas were purchased from Alfa Aesar and Oakwood Chemicals. Deuterated solvents (Cambridge Isotope Laboratories) were used for NMR spectroscopic analyses. NMR spectra were obtained on a 400 MHz FT-NMR spectrometer. All chemical shifts are reported in parts per million (ppm) relative to residual CHCl3 (7.26 ppm for ^1H, 77.2 ppm for ^13C), residual H2O (4.79 ppm for ^1H), residual DMSO (2.50 ppm for ^1H, 39.5 for ^13C), or residual MeOH (3.31 ppm for ^1H, 49.2 ppm for ^13C). The kinetics of RSSH generation were measured using a Varian Inova 800 MHz spectrometer. UPLC-MS analysis was carried out with a Waters Acquity/Xevo-G2 UPLC-MS system equipped with an ACQUITY UPLC BEH C18 column (2.1 mm×50 mm, 1.7 μm). The mass signals for products of hydropersulfide trapping with NEM were obtained via deconvolution using MassLynx 4.1 software. The pH measurements were performed using a Fisher Scientific Accumet AB15 pH-meter. Analytical thin layer chromatography (TLC) was performed on Sigma-Aldrich silica gel on TLC A1 foils with fluorescent indicator F254 plates. Visualization was accomplished with UV light (254 nm) or staining with KMnO4. Flash column chromatography was performed using SiliaFlash P60 (230-400 mesh) silica gel. Melting points were recorded using MEL-TEMP® capillary melting point apparatus and are uncorrected.
# [3] = as above; format: physicochemical; conditions: pH 7.4 buffer with 20% MeOD
# cardiomyocyte H9c2 cells [4] = assay: Cytotoxicity / cell viability assay with Cell Counting Kit-8; format: cell-based; conditions: up to 200 μM, 24 h, CCK-8
# Experimental: (§1) FIGS. 6a and 6b provide graphs of (a) the cell viability of cardiomyocyte H9c2 cells following incubation of the RSSH precursor 4d (50 μM) and phenylcynamide (200 μM) for 24 h; and (b) the cytoprotective effects of the RSSH precursor 4d observed following pretreatment of H9c2 cells with either 4d (50 μM) or phenylcynamide (200 μM) for 2 h, followed by hydrogen peroxide (200 μM) treatment for 2 h. Quantification of cell viability was carried out using Cell Counting Kit-8 (CCK-8). Results are expressed as the mean±SEM (n=6).
# The cytotoxicity and impact on cell viability of the hydropersulfide (RSSH) precursor 4d have been examined using the cardiomyocyte H9C2 cell line and Cell Counting Kit-8 (CCK-8). A cell viability assay reveled that 4d was not cytotoxic at 50 μM ([…]).
# cardiomyocyte H9c2 cells [5] = assay: Cytoprotection against hydrogen peroxide-induced cytotoxicity; format: cell-based; conditions: pretreatment 2 h (4d 50 μM; phenyl cyanamide 200 μM), then H2O2 200 μM 2 h, CCK-8
# Experimental: as §1
# Since hydropersulfides are reported to mitigate oxidative stress, the ability of RSSH precursor 4d to protect cardiomyocyte H9c2 cells from cytotoxicity induced by hydrogen peroxide (H2O2) was tested.
SMILES,melting point,half-life at 1 mM [2],t1//2 (mm) [2],"RSSH generation (RSS-NEM adduct formation) ([1]; pH 7.4 buffer, 37° C., UPLC-MS)",Hydropersulfide Yield (%) (RSS-NEM adduct) [2],also measured
"CC(=O)NC(CSSC(=N)N)C(=O)O.Cl (centres unmarked) [Precursor 1, ((2-acetamido-2-carboxyethyl)disulfaneyl)(amino)methaniminium chloride]",70 to 72 °C,,,no evidence of persulfide-NEM adduct formation,,"disappearance of precursor ([1]; 1 mM with NEM 5 mM, pH 7.4 buffer, 37° C., 30 min): complete disappearance"
"CC(=O)NC(C(=O)O)C(C)(C)SSC(=N)N.Cl (centres unmarked) [Precursor 4a, ((1-acetamido-1-carboxy-2-methylpropan-2-yl)disulfaneyl)(amino)methaniminium chloride]",154 to 156 °C,,,formation of RSS-NEM 5a,,
"CNC(=N)SSC(C)(C)C(NC(C)=O)C(=O)O.Cl (centres unmarked) [Precursor 4b, ((1-acetamido-1-carboxy-2-methylpropan-2-yl)disulfaneyl)(methylamino) methaniminium chloride]",153 to 155 °C,,,reduced compared with that from 4a,,
"COC(=O)C(NC(C)=O)C(C)(C)SSC(=N)N.Cl (centres unmarked) [Precursor 4c, ((3-acetamido-4-methoxy-2-methyl-4-oxobutan-2-yl)disulfaneyl)(amino)methaniminium chloride]",190 to 192 °C,,,,,"RSS-NEM adduct 5b yield ([1]; decomposition in the presence of NEM, UPLC-MS): less than 50%"
"COc1ccc(NC(=N)SSC(C)(C)C(NC(C)=O)C(=O)O)cc1.Cl (centres unmarked) [Precursor 4e, ((1-acetamido-1-carboxy-2-methylpropan-2-yl)disulfaneyl)((4-methoxyphenyl)amino) methaniminium chloride]",142 to 144 °C,5 min,5.0 ± 0.5 min,,75% and 75 ± 2%,
"N#CNc1ccccc1 [phenyl cyanamide, reference compound]",,,,,,tolerability (cell viability) (cardiomyocyte H9c2 cells [4]): well tolerated; cytoprotection from H2O2-induced cytotoxicity (cardiomyocyte H9c2 cells [5]): did not protect

# Further lines, with some results ahead:
melting point,half-life at 1 mM [2],t1//2 (mm) [2],SMILES,"RSSH generation (RSS-NEM adduct formation) ([1]; pH 7.4 buffer, 37° C., UPLC-MS)",Hydropersulfide Yield (%) (RSS-NEM adduct) [2],also measured
152 to 154 °C,17.3 min,173 ± 0.4 min,"CC(=O)NC(C(=O)O)C(C)(C)SSC(=N)Nc1ccccc1Cl.Cl (centres unmarked) [Precursor 4f, ((1-acetamido-1-carboxy-2-methylpropan-2-yl)disulfaneyl)((2-chlorophenyl)amino) methaniminium chloride]",,95% and 95 ± 2%,
143 to 145 °C,9.3 min,9.3 ± 0.6 min,"CC(=O)NC(C(=O)O)C(C)(C)SSC(=N)Nc1ccc(Cl)cc1.Cl (centres unmarked) [Precursor 4g, ((1-acetamido-1-carboxy-2-methylpropan-2-yl)disulfaneyl)((4-chlorophenyl)amino) methaniminium chloride]",,91% and 91 ± 1%,
151 to 153 °C,,,"CC(=O)NC(C(=O)O)C(C)(C)SSC(=N)Nc1ccc(C(F)(F)F)cc1.Cl (centres unmarked) [Precursor 4h, ((1-acetamido-1-carboxy-2-methylpropan-2-yl)disulfaneyl)((4-(trifluoromethyl)phenyl)amino)methaniminium chloride]",,,"Hydropersulfide Yield (%) (RSS-NEM adduct) ([3]; NEM, 37° C.): 95% and 95 ± 2^d %; t1//2 (mm) ([3]; NEM, 37° C.): 6.8 ± 0.2 min; half-life ([3]; pH 7.4, read-out: half-life of precursor): 6.8 min"
,17.3 min,,"CC(C)(C)SSC(=N)Nc1ccccc1.Cl [Precursor 9, (t-butyldisulfaneyl)(phenylamino)methaniminium chloride]",,97%,
